Legend:
Format in all cases: in vivo, human
[1] = test system: adults with OSA and excessive sleepiness; assay: PGI-C and CGI-C, phase 3 randomized withdrawal study in OSA; details: Double-Blind Withdrawal Phase, switched to placebo compared with stayed on APC
Procedure: The study was a double-blind, placebo-controlled, enriched, randomized withdrawal design (FIG. 1). In the Titration Phase (weeks 1-2), patients started on a once-daily dose of APC 75 mg and could be titrated up or down every 3 days to reach a maximum tolerated dose of APC 75, 150, or 300 mg. In the Stable-Dose Phase (weeks 3-4), patients continued to receive the dose that they were titrated to in the Titration Phase for 2 weeks. […]
Efficacy was based on change from week 4 to 6 on the co-primary endpoints of MWT and ESS and percentage of patients reported as improved on the PGI-C and Clinician Global Impression of Change (CGI-C); assessed on a 7-point scale from 1 (very much improved) to 7 (very much worse).
(§1) MWT and ESS data were analyzed using a mixed-effect model repeated measures (MMRM); PGI-C and CGI-C were evaluated using a chi-square test. […] Safety and tolerability were evaluated based on treatment-emergent adverse events (TEAEs), vital signs, and laboratory values.

[2] = test system: adult patients with OSA and ES; assay: WPAI:SHP work productivity and activity impairment, 12-week parallel study in OSA; details: 150 and 300 mg; week 12
Procedure: The study was a 12-week, double-blind, placebo-controlled, parallel design study as described in greater detail in Example 1 (Schweitzer et al., Sleep 40(Abstract Supplement):A237. Abstract 0641 (2017)). Patients were randomized (1:1:2:2:2) to APC 37.5, 75, 150, 300 mg, or placebo for 12 weeks, and were stratified by adherence or non-adherence with primary OSA therapy (adherent definition was use for ≥4 hours per night on >70% of nights). Two patient-reported measures were included as secondary efficacy outcomes to evaluate the effects of APC on functional status and work productivity and activity impairment at baseline and weeks 1, 4, 8, and 12. The Functional Outcomes of Sleep questionnaire short version (FOSQ-10) (Chasens et al., Sleep 32(7):915 (2009)) evaluated the effects of ES on functioning. The Work Productivity and Activity Impairment questionnaire for Specific Health Problems (WPAI:SHP) (Reilly et al., Pharmacoeconomics 4(5):353 (1993); Reilly, Work Productivity and Activity Impairment Questionnaire: Specific Health Problem V2.0 (WPAI: SHP). www.reillyassociates.net/WPAI_SHP) evaluated work productivity impairment among employed patients and overall activity impairment outside of work among all patients for the past 7 days. […]

[3] = test system: adults with OSA and excessive sleepiness; assay: Safety and tolerability (TEAEs), phase 3 randomized withdrawal study in OSA
Procedure: The study was a double-blind, placebo-controlled, enriched, randomized withdrawal design (FIG. 1). In the Titration Phase (weeks 1-2), patients started on a once-daily dose of APC 75 mg and could be titrated up or down every 3 days to reach a maximum tolerated dose of APC 75, 150, or 300 mg. In the Stable-Dose Phase (weeks 3-4), patients continued to receive the dose that they were titrated to in the Titration Phase for 2 weeks. In the Double-Blind Withdrawal Phase (weeks 5-6), patients who reported “much” or “very much” improvement on the Patient Global Impression of Change (PGI-C) scale (Guy W. ECDEU assessment manual for psychopharmacology, revised. US Department of Health, Education, and Welfare publication (ADM 76-338). Rockville, MD: National Institute of Mental Health; 1976), and who had improved on the Maintenance of Wakefulness Test (MWT) and Epworth Sleepiness Scale (ESS) (Johns, Sleep 14(6):540 (1991)) at week 4 were randomized 1:1 to receive the same current dose of JZP-110 or placebo for 2 weeks.
as §1

[4] = Randomized Withdrawal Phase, all JZP-110 doses (n = 62)
[5] = Stable-Dose Phase, all JZP-110 doses (n = 157)

## NC(=O)OC[C@H](N)Cc1ccccc1 [JZP-110, (R)-2-amino-3-phenylpropyl carbamate]
[1]
  Worsening of overall condition on the PGI-C and CGI-C: Significantly higher percentages of patients who were switched to placebo experienced a worsening of their overall condition
[2]
  WPAI:SHP presenteeism, overall work impairment and activity impairment compared to placebo: significantly decreased lower presenteeism, overall work impairment, and activity impairment
[3]; [4]
  Any TEAE, incidence: ρ 18 (29.0) n (%)
  Aphthous stomatitis, incidence: ρ 1 (1.6) n (%)
  Cough, incidence: ρ 1 (1.6) n (%)
  Nasopharyngitis, incidence: ρ 3 (4.8) n (%)
  Serious TEAEs, incidence: ρ 0 n (%)
  TEAEs leading to withdrawal, incidence: ρ 0 n (%)
  Upper respiratory tract infection, incidence: ρ 1 (1.6) n (%)
[3]; [5]
  Diarrhea, incidence: ρ 0 n
  Dyspepsia, incidence: ρ 0 n
  Serious TEAE, incidence: ρ 0 n
  TEAE leading to withdrawal, incidence: ρ 0 n
[3]; Stable-Dose Phase, all JZP-110 doses (n = 157), listed as APC
  Any TEAE, incidence: 10.2%
[3]; Titration Phase, all JZP-110 doses (n = 174)
  Serious TEAE, incidence: ρ 0 n
[3]; Titration Phase, all JZP-110 doses (n = 174), listed as APC
  Any TEAE, incidence: 48.9%
[3]; placebo group in the Randomized Withdrawal Phase
  Rebound hypersomnia or withdrawal effects after abrupt discontinuation: no evidence of rebound hypersomnia or withdrawal effects
[3]; whole study
  Serious TEAEs in the study: no serious TEAEs

From patent US11865098B1, “Methods and compositions for treating excessive sleepiness” (Axsome Malta Ltd., priority 2017, dated 2024)
